T1: (cp)FtsY‐NG (Arabidopsis thaliana, UniProt O80842)
T1 construct: gene CPFTSY
T1 sequence (O80842 65-366): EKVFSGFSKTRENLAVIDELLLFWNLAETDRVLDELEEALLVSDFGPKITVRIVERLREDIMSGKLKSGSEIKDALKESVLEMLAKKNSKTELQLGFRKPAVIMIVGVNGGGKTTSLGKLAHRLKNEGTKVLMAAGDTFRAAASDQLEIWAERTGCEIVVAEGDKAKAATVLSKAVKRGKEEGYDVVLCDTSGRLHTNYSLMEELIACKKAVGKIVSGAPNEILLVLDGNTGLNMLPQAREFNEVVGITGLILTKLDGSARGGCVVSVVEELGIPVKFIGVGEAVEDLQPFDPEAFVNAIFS

T2: (cp)SRP54 (Arabidopsis thaliana, UniProt P37107)
T2 construct: gene FFC; residues 79-564 (transit peptide removed), NG and M domains, hexa-histidine tag kept, expressed in E. coli BL21(DE3) Rosetta
T2 sequence (P37107 79-564): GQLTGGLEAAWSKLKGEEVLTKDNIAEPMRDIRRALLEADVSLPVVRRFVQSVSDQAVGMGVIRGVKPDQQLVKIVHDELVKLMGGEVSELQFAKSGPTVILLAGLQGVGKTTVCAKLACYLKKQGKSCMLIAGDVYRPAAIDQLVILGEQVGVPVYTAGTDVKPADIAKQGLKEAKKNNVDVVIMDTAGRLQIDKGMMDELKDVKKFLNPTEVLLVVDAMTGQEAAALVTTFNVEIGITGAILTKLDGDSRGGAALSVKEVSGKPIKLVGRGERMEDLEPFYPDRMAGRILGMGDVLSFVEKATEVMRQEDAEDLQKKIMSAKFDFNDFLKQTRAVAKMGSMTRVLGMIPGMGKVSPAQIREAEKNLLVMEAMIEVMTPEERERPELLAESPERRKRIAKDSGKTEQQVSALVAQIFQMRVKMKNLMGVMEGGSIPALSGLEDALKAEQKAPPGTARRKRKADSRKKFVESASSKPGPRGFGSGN

T3: (cp)SRP54:FtsY‐NG complex (Arabidopsis thaliana, UniProt O80842+P37107)
T3 construct: gene FFC; GTPase heterodimer mixed from the two His-tagged proteins: SRP54 residues 79-564 and FtsY NG domain residues 65-366
T3 sequence (P37107 79-564): T2 sequence (P37107 79-564)
T3 sequence (O80842 65-366): T1 sequence (O80842 65-366)

T4: chloroplast signal recognition particle 54 kDa protein, (cp)SRP54 (Arabidopsis thaliana, UniProt P37107 79-564)
T4 construct: Arabidopsis thaliana (cp)SRP54, UniProt P37107, residues 79-564; the methods give residues 79-564; source: E. coli BL21 (DE3) Rosetta, purified (HisTrap FF, EDTA incubation, SEC Superdex 200)
T4 sequence (looked up): T2 sequence (P37107 79-564)

B1: NG domain of the chloroplast SRP receptor (cp)FtsY, (cp)FtsY-NG (domain or fragment, Arabidopsis thaliana, UniProt O80842 65-366, looked up)
chain: T1 sequence (O80842 65-366)
notes: source: E. coli BL21 (DE3) Rosetta, purified (HisTrap FF, EDTA incubation, SEC Superdex 200)

Key:
[1] = target: T1, (cp)FtsY‐NG; test: isothermal titration calorimetry; assay type: binding
Excerpt: isothermal titration calorimetry on (cp)FtsY‐NG

[2] = target: T2, (cp)SRP54; test: isothermal titration calorimetry; assay type: binding
Excerpt: isothermal titration calorimetry on (cp)SRP54

[3] = target: T3, (cp)SRP54:FtsY‐NG complex; test: HPLC GTP hydrolysis assay; assay type: biochemical; details: 10 μM each protein, 500 μM GTP, pH 7.5, 10 mM Mg(OAc)2, 37 °C
[4] = target: T3, (cp)SRP54:FtsY‐NG complex; test: analytical size-exclusion chromatography of complex formation; assay type: binding; details: nonhydrolysable GTP analogue promotes the heterodimer; 20 mM HEPES-K pH 7.5, 20 mM MgCl2
[5] = target: T1, (cp)FtsY‐NG; test: X-ray crystal structure, […] Å; details: Mg2+; canonical guanosine nucleotide-binding site; 100 mM Tris pH 8.5, 25% PEG1000
[6] = target: T3, (cp)SRP54:FtsY‐NG complex; test: HPLC GTP hydrolysis assay; assay type: biochemical; details: read-out: residual GTPase activity (% GTP hydrolysed) at 10 mM, 30 min
[7] = target: T4, chloroplast signal recognition particle …; test: SEC; analytical SEC, Superdex 200 Increase 10/300 GL; 100 uM of each protein in buffer C (20 mM HEPES-K pH 7.5, 200 mM NaCl, 20 mM KCl, 20 mM MgCl2) with increasing GppNHp; 30 min at room temperature; also 0.5 mM GppNHp with increasing ppGpp or pppGpp, which disrupt the complex; details: both partners purified

| Molecule | Kd [1] | Kd [2] | remaining activity at 10000 µM [6] | further results |
| --- | --- | --- | --- | --- |
| Nc1nc2c(ncn2[C@@H]2O[C@H](COP(=O)(O)OP(=O)(O)O)[C@@H](O)[C@H]2O)c(=O)[nH]1 [GDP] | 7.71 ± 0.4 µM | 23.5 ± 2.29 µM | – | – |
| Nc1nc2c(ncn2[C@@H]2O[C@H](COP(=O)(O)OP(=O)(O)OP(=O)(O)O)[C@@H](O)[C@H]2O)c(=O)[nH]1 [GTP] | 11.9 ± 2.44 µM | 51.8 ± 3.54 µM | – | HPLC GTP hydrolysis assay [3]: significantly enhanced when in complex, hydrolysing nearly all available GTP |
| Nc1nc2c(ncn2[C@@H]2O[C@H](COP(=O)(O)OP(=O)(O)NP(=O)(O)O)[C@@H](O)[C@H]2O)c(=O)[nH]1 [GppNHp] | – | – | – | analytical size-exclusion chromatography of complex formation [4]: visualized the complex between (cp)SRP54 and (cp)FtsY‐NG at increasing concentrations of GppNHp |
| Nc1nc2c(ncn2[C@@H]2O[C@H](COP(=O)(O)OP(=O)(O)O)[C@@H](OP(=O)(O)OP(=O)(O)O)[C@H]2O)c(=O)[nH]1 [ppGpp] | 7.36 ± 1.46 µM | 32.5 ± 5.38 µM | ~20% | X-ray crystal structure, 1.99 Å [5]: solve the crystal structure of the truncated form of (cp)FtsY from A. thaliana |
| Nc1nc2c(ncn2[C@@H]2O[C@H](COP(=O)(O)OP(=O)(O)OP(=O)(O)O)[C@@H](OP(=O)(O)OP(=O)(O)O)[C@H]2O)c(=O)[nH]1 [pppGpp] | 27.6 ± 3.64 µM | 47.8 ± 3.52 µM | ~20% | – |
| B1 | – | – | – | binding result [7]: binds |

Reference: article PMC12104861, “Structural and mechanistic basis for the regulation of the chloroplast signal recognition particle by (p)ppGpp” (Febs Letters, 2025)
